Data taken from patent US9340492B2, “Meta-Diarylaniline or meta-diarylpyridinamine compound, preparation method and medical uses thereof” (INSTITUTE OF PHARMACOLOGY AND TOXICOLOGY ACADEMY OF …, priority 2012, dated 2016).
Values after ≈ are worked out from the molar mass of the structure shown.

Legend:
[1] = tested on: NL4-3 virus (HIV, wild-type); assay: Anti-HIV activity assay (TZM-bl cell model), NL4-3 wild-type; type: cell-based; details: human, TZM-bl cells infected with HIV-1 NL4-3 virus; CC50 (TZM-bl) / EC50 (NL4-3); read-out: SI, selective index, ratio of toxic CC50 value to active EC50 value
Procedure: (§1) The assay was carried out by reference to the document (Dang, Z, et al. J. Med. Chem. 2009, 52, 7887-7891). In particular, in a 96-well cell culture plate, solutions of the compounds to be tested at different concentrations were mixed with TZM-bl cells (from National Institutes of Health (NIH)) infected with 200 TCID50 NL4-3 virus, respectively. 2 days later, the culture medium was removed, 100 μl of Bright Glo reagent was added to each well, and Victor 2 luminometer was used to detect the […] of the cells.

[2] = tested on: NL4-3 virus; assay: as above; type: cell-based; details: Human immunodeficiency virus 1, NL43, TZM-bl, read-out: EC50, concentration effective to inhibit the replication of half of viruses
Procedure: as §1

[3] = TZM-bl cytotoxicity assay (XTT); type: cell-based; details: human, TZM-bl cells, read-out: CC50, concentration effective to inhibit the growth of half of cells
Procedure: The assay was carried out by reference to the document (Dang, Z, et al. J. Med. Chem. 2009, 52, 7887-7891). In particular, in a 96-well cell culture plate, solutions of Compounds 1-57 at different concentrations (100 μl) were mixed with an equivalent volume of TZM-bl cells (from National Institutes of Health (NIH)) (5×10^5/mL), and were incubated at 37° C. for 4 d. 50 μl of freshly prepared XTT solution (1 mg/mL) containing 0.02 μM PMS was added. Optical density at 450 nm was measured 4 h later.

[4] = tested on: multi-drug resistant viral strain of HIV-1 RT (RTMDR); assay: Activity against drug-resistant virus RTMDR; type: cell-based; details: Human immunodeficiency virus 1, read-out: Drug-resistant viruses EC50, RTMDR
[5] = tested on: K101E drug-resistant virus; assay: Activity against drug-resistant virus K101E; type: cell-based, HIV; details: Human immunodeficiency virus 1, read-out: Drug-resistant viruses EC50, K101E
[6] = tested on: E138K drug-resistant virus; assay: Activity against drug-resistant virus E138K; type: cell-based, HIV; details: Human immunodeficiency virus 1, read-out: Drug-resistant viruses EC50, E138K
[7] = Water-solubility at pH2.0; type: physicochemical; details: for solubility: aqueous medium (water) at pH 2.0, pH 2, simulated gastric fluid
[8] = Incubation experiment of human liver microsomes; type: in vitro ADME; details: for half-life: read-out: HLM t1/2

| SMILES | selectivity ratio at 2 days [1] | EC50 [2] | CC50 at 4 d [3] | EC50 [4] | EC50 [5] | EC50 [6] | solubility [7] | half-life [8] | HLM t1/2 [8] | Water-solubility [7] |
| --- | --- | --- | --- | --- | --- | --- | --- | --- | --- | --- |
| N#CCCc1cc(Br)c(Oc2ccc(N)c(Nc3ccc(C#N)cc3)n2)c(Br)c1 [Compound 28] | 24900 | 0.33 nM | 8210 nM | 0.74 nM | 7.63 nM | 4.11 nM | 3.26 µg/mL (≈ 6.35 µM) | 23 min | – | – |
| COc1cc(CCC#N)cc(Br)c1Oc1ccc(N)c(Nc2ccc(C#N)cc2)n1 [Compound 26A] | 6560 | 3.25 nM | 21000 nM | 3.46 nM | 3.89 nM | 6.93 nM | 1.77 µg/mL (≈ 3.81 µM) | 54.7 min | – | – |
| Cc1cc(CCC#N)cc(C)c1Oc1cc(Nc2ccc(C#N)cc2)c(N)cc1CO [Compound 6, 5-(4″-cyanoethyl-2″,6″-dimethylphenoxy)-N^1-(4′-cyanophenyl)-4-hydroxymethyl-1,2-phenylenediamine] | 61000 | 0.39 nM | > 23800 nM | 1.8 nM | 3.4 nM | 2.9 nM | 18.8 µg/mL (≈ 45.6 µM) | – | 20.9 min | – |
| Cc1cc(CCC#N)cc(C)c1Oc1cc(Nc2ccc(C#N)cc2)c(N)cc1C(F)(F)F [Compound 2, 5-(4″-cyanoethyl-2″,6″-dimethylphenoxy)-N^1-(4′-cyanophenyl)-4-trifluoromethyl-1,2-phenylenediamine] | > 6280 | 1.13 nM | > 7100 nM | 3.2 nM | 47.6 nM | 34.4 nM | – | – | 55.7 min | 0.33 µg/mL |
| COC(=O)c1cc(N)c(Nc2ccc(C#N)cc2)cc1Oc1c(C)cc(CCC#N)cc1C [Compound 4, 5-(4″-cyanoethyl-2″,6″-dimethylphenoxy)-N^1-(4′-cyanophenyl)-4-methoxycarbonyl-1,2-phenylenediamine] | > 5260 | 4.3 nM | > 22700 nM | 4.1 nM | 14 nM | 7.5 nM | 1.21 µg/mL (≈ 2.75 µM) | – | 186 min | – |
| Cc1cc(CCC#N)cc(C)c1Oc1cc(Nc2ccc(C#N)cc2)c(N)cc1CNC1CC1 [Compound 34, 5-(4″-cyanoethyl-2″,6″-dimethylphenoxy)-N^1-(4′-cyanophenyl)-4-(2-cyclopropylaminomethyl)-1,2-phenylenediamine] | > 9430 | 0.53 nM | > 5000 nM | 4.88 nM | 27.3 nM | 25.7 nM | 9.11 µg/mL (≈ 20.2 µM) | 42 min | – | – |
